According to patent publication US11053238B2, “Benzimidazole derivatives, preparation methods and uses thereof” (BETTA PHARMACEUTICALS CO., LTD, priority 2016, dated 2021):
Like-named read-outs stand apart in the source and are kept apart here.

Legend:
CDK9/cyclin T1 = CDK9/cyclin T1 (Homo sapiens (Human), UniProt P50750); test: 33P-ATP radiometric CDK kinase inhibitory activity and selectivity test; assay type: biochemical
Excerpt: (§1) The mechanism of this method is shown in formula (II).
(§2) Data was processed with Prism4 Software (GraphPad), and the curve fitting formula was:
(§3) Y=Bottom+(Top−Bottom)/(1+10^((Log IC50−X)*HillSlope)); wherein, Y is percent inhibition (%); X is logarithm of concentration of the inhibitor.

CDK2/cyclin E = CDK2/cyclin E (Homo sapiens (Human), UniProt P24941); test: as above; assay type: biochemical
Excerpt: as §1, §2, §3

[1] = BALB/c mice, 200 mg/kg (qd); for observation (mortality) / Body weight (weight loss) / weight loss (in words): oral gavage; for Body weight (weight loss): vs vehicle control; for mice death in each group (6 mice): after treatment for 2 weeks
JeKo-1 cells = test: Tumor regression effect on JeKo-1 xenograft animal model; assay type: in vivo, NOD/SCID mice; conditions: 10-100 mg/kg orally once a day, 19 days
Experimental: JeKo-1 cells were cultured in RPMI 1640 medium containing 20% fetal bovine serum. Exponentially growing JeKo-1 cells were collected and resuspended in PBS to a suitable concentration for NOD/SCID mice subcutaneous tumor inoculation. Seventy female mice were inoculated subcutaneously on the right with 5×10^6 JeKo-1 cells, resuspended in PBS and matrigel (1:1). When the average tumor volume reached 134 mm^3, the mice were randomly grouped according to the size of the tumor and were administrated. Forty-eight mice were divided into the experimental group, and the remaining twenty-two mice were not used for experiment. Tumor volume is calculated as: long diameter×short diameter^2/2. […] Efficacy is evaluated according to the relative tumor growth inhibition rate of TGI.
The higher the TGI (%) value illustrates the better the potency; and vice versa.

CDK2/CycA2 = CDK2/CycA2 (Homo sapiens (Human), UniProt P24941); test: CDK kinase assay (Caliper, FAM-labeled peptide)
[2] = tested on: Human colorectal cancer cells (colo-205); test: MTS cell viability assay (cell proliferation); assay type: cell-based; conditions: colo-205 cells, 7 days of exposure
Experimental: Effects of test compounds on in vitro proliferation were measured by MTS cell viability assay.
Human colorectal cancer cells (colo-205) is expanded in culture (colo-205 is grown in DMEM media with 12% FBS, 1% P/S, and 1% L-glutamine).
MTS Cell Viability Assay:
1. Seed cells at density of 4×10^3 cells per well of 96-wells plates, grow for 24 h;
2. Add varying concentrations of test compounds to the cells;
3. Incubate for 7 days of exposure;
4. Prepare reagents following the instructions in the Cell Proliferation Assay kit (Promega);
5. Change to serum-free medium with a final volume of 100 μl/well. Prepare a set of wells with medium only for background subtraction;
6. Add 20 μl MTS solution containing PMS to each well (final concentration of MTS will be 0.33 mg/mL);
7. Incubate 1 to 4 h at 37° C. in a humidified, 5% CO2 atmosphere;
8. Record absorbance at 490 nm using VICTOR™ X5 plate reader (PerkinElmer).
All experimental points were set up in three wells and all experiments were repeated at least three times.

CDK4/CycD3 = CDK4/CycD3 (Homo sapiens (Human), UniProt P11802); test: CDK kinase assay (Caliper, FAM-labeled peptide)
Sequence of CDK4/CycD3 (P11802 whole entry, species assumed): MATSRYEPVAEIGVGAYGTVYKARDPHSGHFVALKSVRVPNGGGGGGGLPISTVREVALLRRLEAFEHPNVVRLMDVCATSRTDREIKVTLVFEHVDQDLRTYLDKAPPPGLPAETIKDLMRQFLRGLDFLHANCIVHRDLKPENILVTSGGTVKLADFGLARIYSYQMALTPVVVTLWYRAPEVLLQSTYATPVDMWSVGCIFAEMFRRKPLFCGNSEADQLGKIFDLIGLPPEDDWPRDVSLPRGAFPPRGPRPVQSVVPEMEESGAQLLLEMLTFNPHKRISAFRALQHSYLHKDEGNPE
Sequence of CDK4/CycD3 (P30281 whole entry partner, species assumed): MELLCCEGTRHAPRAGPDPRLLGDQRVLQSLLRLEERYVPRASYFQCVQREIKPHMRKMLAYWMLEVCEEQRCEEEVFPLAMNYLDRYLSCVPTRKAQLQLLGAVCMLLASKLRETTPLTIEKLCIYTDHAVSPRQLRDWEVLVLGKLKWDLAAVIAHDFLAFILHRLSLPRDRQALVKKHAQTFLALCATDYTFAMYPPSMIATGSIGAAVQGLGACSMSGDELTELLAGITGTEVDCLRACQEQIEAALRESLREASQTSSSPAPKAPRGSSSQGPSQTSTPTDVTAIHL

CDK6/cycD3 = CDK6/cycD3 (Homo sapiens (Human), UniProt Q00534); test: CDK kinase assay (Caliper, FAM-labeled peptide); conditions: read-out: IC50(CDK6); CDK6/cycD3, ATP 800 μM
Sequence of CDK6/cycD3 (Q00534 whole entry, species assumed): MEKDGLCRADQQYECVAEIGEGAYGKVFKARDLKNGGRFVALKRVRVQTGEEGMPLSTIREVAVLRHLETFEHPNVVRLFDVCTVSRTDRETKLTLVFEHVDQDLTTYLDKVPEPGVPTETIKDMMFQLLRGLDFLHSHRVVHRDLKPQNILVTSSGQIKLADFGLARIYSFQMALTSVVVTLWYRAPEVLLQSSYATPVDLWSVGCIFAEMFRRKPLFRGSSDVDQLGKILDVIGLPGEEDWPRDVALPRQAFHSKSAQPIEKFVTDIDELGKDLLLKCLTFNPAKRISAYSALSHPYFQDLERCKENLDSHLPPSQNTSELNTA
Sequence of CDK6/cycD3 (P30281 whole entry partner, species assumed): as the sequence (P30281 whole entry partner, species assumed) above

[3] = 33P-ATP, P81 membrane, read-out: CDK kinase inhibitory activity IC50, CDK9/cyclin T1
[4] = text summary for CDK1/2/7/9, read-out: IC50 for inhibiting CDK9
[5] = 33P-ATP, P81 membrane, read-out: CDK kinase inhibitory activity IC50, CDK2/cyclin E
[6] = text summary for CDK1/2/7/9, read-out: IC50 for inhibiting CDK2
[7] = IC50(CDK4), head-to-head comparison of substituent site, class symbols

Sequence of CDK9/cyclin T1 (P50750 whole entry, species assumed): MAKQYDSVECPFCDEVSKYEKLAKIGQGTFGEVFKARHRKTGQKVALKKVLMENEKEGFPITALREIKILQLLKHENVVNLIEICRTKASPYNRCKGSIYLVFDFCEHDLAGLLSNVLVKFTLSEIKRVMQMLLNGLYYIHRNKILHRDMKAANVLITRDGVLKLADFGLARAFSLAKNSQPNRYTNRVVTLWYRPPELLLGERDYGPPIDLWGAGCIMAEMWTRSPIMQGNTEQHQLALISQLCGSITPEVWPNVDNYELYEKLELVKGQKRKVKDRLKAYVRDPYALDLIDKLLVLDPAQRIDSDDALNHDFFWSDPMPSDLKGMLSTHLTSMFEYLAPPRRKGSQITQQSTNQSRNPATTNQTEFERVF
Sequence of CDK9/cyclin T1 (O60563 whole entry partner, species assumed): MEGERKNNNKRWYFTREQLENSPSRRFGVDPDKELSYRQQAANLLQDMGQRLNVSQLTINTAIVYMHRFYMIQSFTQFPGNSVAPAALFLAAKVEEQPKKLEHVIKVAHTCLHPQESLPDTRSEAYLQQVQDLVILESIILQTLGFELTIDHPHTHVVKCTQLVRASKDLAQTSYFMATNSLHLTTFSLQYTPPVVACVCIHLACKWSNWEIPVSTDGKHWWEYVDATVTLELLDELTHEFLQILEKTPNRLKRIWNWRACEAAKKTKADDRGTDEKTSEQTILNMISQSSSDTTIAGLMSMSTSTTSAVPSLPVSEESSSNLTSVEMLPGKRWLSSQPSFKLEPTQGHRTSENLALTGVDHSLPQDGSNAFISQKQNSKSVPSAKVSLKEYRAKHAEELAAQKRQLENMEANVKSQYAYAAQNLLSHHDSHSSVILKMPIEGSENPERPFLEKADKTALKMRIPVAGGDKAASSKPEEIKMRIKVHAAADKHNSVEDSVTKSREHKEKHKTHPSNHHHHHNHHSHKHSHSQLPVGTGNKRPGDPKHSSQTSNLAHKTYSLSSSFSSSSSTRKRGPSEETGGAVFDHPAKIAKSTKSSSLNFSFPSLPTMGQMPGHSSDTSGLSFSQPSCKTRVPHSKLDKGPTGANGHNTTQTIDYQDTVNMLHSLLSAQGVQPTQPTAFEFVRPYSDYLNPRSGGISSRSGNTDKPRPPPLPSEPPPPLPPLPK

Work on `CCN1CCN(Cc2ccc(Nc3ncc(F)c(-c4cc(F)c5nc6n(c5c4)C(C)CCC6)n3)nc2)CC1` (single isomer, unassigned) [Compound 2a, N-(5-((4-ethylpiperazin-1-yl)methyl)pyridin-2-yl)-5-fluoro-4-(6-fluoro-1-methyl-1,2,3,4-tetrahydrobenzo[4,5]imidazo[1,2-a]pyridin-8-yl)pyrimidin-2-amine] yielded an IC50 (CDK9/cyclin T1; [3]) of 779 nM, an IC50 (CDK9/cyclin T1; [4]) greater than 400 nM and an IC50 (CDK2/cyclin E; [5]) of 596 nM. It also gave an IC50 (CDK2/cyclin E; [6]) greater than 400 nM.
With `CCN1CCN(Cc2ccc(Nc3ncc(F)c(-c4cc(F)c5nc6n(c5c4)C(C)CCC6)n3)nc2)CC1` (single isomer, unassigned) [Compound 2b, N-(5-((4-ethylpiperazin-1-yl)methyl)pyridin-2-yl)-5-fluoro-4-(6-fluoro-1-methyl-1,2,3,4-tetrahydrobenzo[4,5]imidazo[1,2-a]pyridin-8-yl)pyrimidin-2-amine] the “observation (mortality)” value [1] was “−”, the “Body weight (weight loss)” value [1] was “* (weight loss less than 5%)” and the IC50 (CDK9/cyclin T1; [3]) was 649 nM. It also gave an IC50 (CDK9/cyclin T1; [4]) greater than 400 nM, an IC50 (CDK2/cyclin E; [5]) of 441 nM and an IC50 (CDK2/cyclin E; [6]) greater than 400 nM. The “anti-tumor activity (in words)” value (JeKo-1 cells) was “excellent anti-tumor activity”.
For `CCN1CCN(Cc2ccc(Nc3ncc(F)c(-c4cc(F)c5nc6n(c5c4)C(C)COC6)n3)nc2)CC1` (single isomer, unassigned) [Compound 16b, N-(5-((4-ethylpiperazin-1-yl)methyl)pyridin-2-yl)-5-fluoro-4-(9-fluoro-4-methyl-3,4-dihydro-1H-benzo[4,5]imidazo[2,1-c][1,4]oxazin-7-yl)pyrimidin-2-amine], the IC50 (CDK2/CycA2) was greater than 300 nM, the “observation (mortality)” value [1] was “−” and the “Body weight (weight loss)” value [1] was “* (weight loss less than 5%)”.
For `CN1CCN(c2ccc(Nc3ncc(F)c(-c4cc(F)c5nc6n(c5c4)C4(CCC6)CC4)n3)nc2)CC1` [Com. EX. 1, 5-fluoro-4-(6-fluoro-3,4-dihydro-2 H-spiro[benzo[4,5]imidazo,[1,2-a]pyridine-1,1′-cyclopropan]-8-yl)-N-(5-(4-methylpiperazin-1-yl)pyridin-2-yl)pyrimidin-2-amine], the IC50 [2] was 6640 nM.
Compound `CN1CCN(c2ccc(Nc3ncc(F)c(-c4cc(F)c5nc6n(c5c4)CCCC6)n3)nc2)CC1` [Com. EX. 2, 5-fluoro-4-(6-fluoro-1,2,3,4-tetrahydrobenzo[4,5]imidazo[1,2-a]pyridin-8-yl)-N-(5-(4-methylpiperazin-1-yl)pyridin-2-yl)pyrimidin-2-amine] has an IC50 [2] of 8900 nM.
In the case of `CCN1CCN(Cc2ccc(Nc3ncc(F)c(-c4cc(F)c5nc6n(c5c4)[C@H](C(C)C)COC6)n3)nc2)CC1` [Com. EX. 3b, (R)-N-(5-((4-ethylpiperazin-1-yl)methyl)pyridin-2-yl)-5-fluoro-4-(9-fluoro-4-isopropyl-3,4-dihydro-1 H-benzo[4,5]imidazo[2,1-c][1,4]oxazin-7-yl)pyrimidin-2-amine], the “mice death in each group (6 mice)” value [1] is reported as 4, the “observation (mortality)” value [1] is reported as “+” and the “weight loss (in words)” value [1] is reported as “much more weight loss”. For the same compound, the “Body weight (weight loss)” value [1] was “*** (weight loss more than 10% and less than 30%)”.
For `CC[C@@H]1COCc2nc3c(F)cc(-c4nc(Nc5ccc(CN6CCN(CC)CC6)cn5)ncc4F)cc3n21` [Com. EX. 4b, (R)-4-(4-ethyl-9-fluoro-3,4-dihydro-1H-benzo[4,5]imidazo[2,1-c][1, 4]oxazin-7-yl)-N-(5-((4-ethylpiperazin-l-yl)methyl)pyridin-2-yl)-5-f luoropyimidin-2-amine], the “mice death in each group (6 mice)” value [1] was 5, the “observation (mortality)” value [1] was “+” and the “weight loss (in words)” value [1] was “much more weight loss”. For the same compound, the “Body weight (weight loss)” value [1] was “*** (weight loss more than 10% and less than 30%)”.
Work on `CC1(C)CCCc2nc3c(F)cc(-c4nc(Nc5ccc(N6CCN(C7COC7)CC6)cn5)ncc4F)cc3n21` [Com. EX. 5, 5-fluoro-4-(6-fluoro-1,1-dimethyl-1,2,3,4-tetrahydrobenzo[4,5]imidazo[1,2-a]pyridin-8-yl)-N-(5-(4-(oxetan-3-yl)piperazin-1-yl)pyridin-2-yl)pyrimidin-2-amine, reference compound] yielded an IC50 (CDK2/CycA2) of 40 nM.
In the case of `CC1(C)CCCc2nc3c(F)cc(-c4nc(Nc5ccc(CN6CCNCC6)cn5)ncc4F)cc3n21` [Com. EX. 6, 5-fluoro-4-(6-fluoro-1,1-dimethyl-1,2,3,4-tetrahydrobenzo[4,5]imidazo[1,2-a]pyridin-8-yl)-N-(5-(piperazin-1-ylmethyl)pyridin-2-yl)pyri midin-2-amine, reference compound], the IC50 (CDK2/CycA2) is reported as 40 nM.
In the case of `CC1CCCn2c1nc1c(F)cc(-c3ccnc(Nc4ccc(N5CCN(C)CC5)cn4)n3)cc12` (stereo not drawn) [Com. EX. No. 7, 4-(6-fluoro-4-methyl-1,2,3,4-tetra hydrobenzo[4,5]imidazo[1,2-a]pyridin-8-yl)-N-(5-(4-methylpiperazin-1-yl)pyridin-2-yl)pyrimidin-2-a mine], the IC50 (CDK4/CycD3) is reported as 57 nM and the IC50 (CDK6/cycD3) is reported as 110 nM.
For `CCN1CCN(Cc2ccc(Nc3ncc(F)c(-c4cc(F)c5nc6n(c5c4)CC(C)CC6)n3)nc2)CC1` (stereo not drawn) [Com. EX. No. 8, N-(5-((4-ethylpiperazin-1-yl)methyl)pyridin-2-yl)-5-fluoro-4-(6-fluoro-2-methyl-1,2,3,4-tetrahydrobenzo[4,5]imidazo[1,2-a]pyridin-8-yl) pyrimidin-2-amine], the IC50 (CDK4/CycD3; [7]) was 1000 to 2000 nM.
`CCN1CCN(Cc2ccc(Nc3ncc(F)c(-c4cc(F)c5nc6n(c5c4)CCCC6C)n3)nc2)CC1` (stereo not drawn) [Com. EX. No. 10, N-(5((4-ethylpiperazin-l-yl)methyl)pyridin-2-yl)-5-fluoro-4-(6-fluoro-4-methyl-1,2,3,4-tetrahydrobenzo[4,5]imidazo[1,2-a]pyridin-8-yl) pyrimidin-2-amine] gave an IC50 (CDK4/CycD3; [7]) of 1000 to 2000 nM.
`CC1CCCc2nc3c(F)cc(-c4ccnc(Nc5ccc(N6CCN(C)CC6)cn5)n4)cc3n21` (stereo not drawn) [Compound 1, 4-(6-fluoro-1-methyl-1,2,3,4-tetrahydrobenzo[4,5]imidazo[1,2-a]pyridin-8-yl)-N-(5-(4-methylpiperazin-1-yl)pyridin-2-yl)pyrimidin-2-amine] showed an IC50 (CDK2/CycA2) greater than 300 nM and an IC50 [2] of 78 nM.
For `CCN1CCN(Cc2ccc(Nc3ncc(F)c(-c4cc(F)c5nc6n(c5c4)C(C)CCC6)n3)nc2)CC1` (stereo not drawn) [Compound 2, N-(5-((4-ethylpiperazin-1-yl)methyl)pyridin-2-yl)-5-fluoro-4-(6-fluoro-1-methyl-1,2,3,4-tetrahydrobenzo[4,5]imidazo[1,2-a]pyridin-8-yl)pyrimidin-2-amine], the IC50 (CDK2/CycA2) was greater than 300 nM, the “weight loss (in words)” value [1] was “almost little weight loss” and the IC50 (CDK9/cyclin T1; [3]) was 572 nM. The IC50 (CDK9/cyclin T1; [4]) was greater than 400 nM, the IC50 (CDK2/cyclin E; [5]) was 474 nM and the IC50 (CDK2/cyclin E; [6]) was greater than 400 nM. For the same compound, the IC50 [2] was 53 nM.
In the case of `CCN1CCN(Cc2ccc(Nc3ncc(F)c(-c4cc(F)c5nc6n(c5c4)C(C)COC6)n3)nc2)CC1` (stereo not drawn) [Compound 16, N-(5-((4-ethylpiperazin-1-yl)methyl)pyridin-2-yl)-5-fluoro-4-(9-fluoro-4-methyl-3,4-dihydro-1H-benzo[4,5]imidazo[2,1-c][1,4]oxazin-7-yl)pyrimidin-2-amine], the “weight loss (in words)” value [1] is reported as “almost little weight loss”.
With `CCN1CCN(Cc2ccc(Nc3ncc(F)c(-c4cc(F)c5nc(C)n(C(C)C)c5c4)n3)nc2)CC1` [LY2835219, Abemaciclib] the “observation (mortality)” value [1] was “−” and the IC50 [2] was 136 nM.
